Patent US12357711B2, “PSMA binding dual mode radiotracer and therapeutic” (Technische Universität München, priority 2019, dated 2025)

Test system: SCID mice
Assay: Preclinical dosimetry from biodistribution in mice, extrapolated to 70-kg Standard Adult (OLINDA/EXM 1.0)
Assay type: in vivo
Details: […] bladder voiding interval
Description: 3-5 mice were injected per timepoint with a mean 25.6±3.6 MBq of 18F-rhPSMA-7 and 28.5±4.8 MBq of 18F-rhPSMA-7.3, respectively. Mice, severe combined immunodeficiency (SCID) were used for the experiments.
Mice were sacrificed at the following timepoints: • ^18F-rhPSMA-7: 10, 20, 40, 60, 120 and 180 minutes after administration. • ^18F-rhPSMA-7.3: 10, 60, 120, 180 and 300 minutes after administration.
Urine, blood, heart, lung, spleen, pancreas, liver, stomach (emptied), small intestine (emptied), large intestine (emptied), kidneys, bladder, testis, fat, muscle (partial, femoral), femur, tail and brain. Urine was collected with a pipette in the CO2 gas chamber. In case of missing urination in the chamber the bladder was aspirated with an insulin syringe. Blood was withdrawn instantly after sacrifice with an insulin syringe from the heart. All other tissues and organs were dissected and transferred directly in plastic containers.
The counting rates of measurement samples were automatically corrected for decay. The radioactivity distribution ratios (unit: percentage of the injected dose (% ID) in the measurement samples were determined using the equation below. The sum of the counting rates from all measurement samples obtained from one mouse was designated as the counting rate for administrated radioactivity.
The radioactivity distribution ratio per unit weight of the measurement sample (unit: % ID/g) excluding urine and feces samples was determined by using the equation below. The weight of the measurement sample was determined by subtraction of the empty measurement container from the container including the sample.
For consistency of statistical calculations for each radiotracer the same number of time-points for ^18F-rhPSMA-7 and ^18F-rhPSMA-7.3 was used. Therefore, for ^18F-rhPSMA-7 the 10 min and 20 min time points were combined creating a 15 min endpoint.
The time-integral of activity for the accumulation in the significant source organs (AUCs) were generated both with numerical integration and physical decay according to J Juan et al., Journal of Pharmaceutical Sciences, 1993, 82:762-763.
In brief, to calculate a human dosimetry from the biodistribution in the mice, an extrapolation was necessary to account for the differences between the animals and humans. Normal-organ radiation doses were estimated for the 70-kg Standard Adult anatomic model using time-depending organ activity concentrations (in percent of the injected dose per gram, % ID/g) and total-body activities measured in the biodistribution studies in mice.
Tissue activity concentrations in mice were converted to tissue fractional activities in the 70-kg Standard Adult using the relative fractional organ masses in the Standard Adult and the “standard” 25-gramm mouse. Time-dependent total-body activity was fit to an exponential function and the difference between the injected activity and the total-body activity was assumed to be excreted to the urine because activity concentrations in the liver and GI tracer were low at all time points studied.
Organ residence time was calculated by numerical integration using the trapezoidal rule and the rest-of-body ^18F residence times was calculated as the difference between the total-body residence time and the sum of the organ and urine residence times. The bladder contents residence time was estimated using the dynamic voiding model in the OLINDA/EXM 1.0 dosimetry software. Finally, the Standard Adult mean organ dose equivalents (in mSv/MBq) and effective dose (also in mSv/MBq) were then calculated using OLIN DA/EXM 1.0.
Final calculation of radiation absorbed dose and dosimetry from biodistribution in mice: The tissues or organs in which a significant accumulation of radioactivity occurs (i.e., source organ) were kidney, spleen, lung, liver and heart. With respect to activity accumulation and clearance, a rapid clearance from blood and clearance to urine but relatively slow build-up in kidney was found.

CC(C)(C)[Si](F)(c1ccc(C(=O)NC[C@@H](NC(=O)CC[C@@H](C(=O)O)N2CCN(CC(=O)[O-])CCN(CC(=O)[O-])CCN(CC(=O)[O-])CC2)C(=O)N[C@H](CCCCNC(=O)CCC(=O)NCCC[C@@H](NC(=O)CC[C@H](NC(=O)N[C@@H](CCC(=O)O)C(=O)O)C(=O)O)C(=O)O)C(=O)O)cc1)C(C)(C)C.[Ga+3] [rhPSMA7.3, [^19F][^natGa]D-Dap-S-DOTAGA-rhPSMA7]
Adrenals ED Cont.: 5.52E−05 mSv/MBq | Adrenals EDE Cont.: 0.00E000 mSv/MBq | Adrenals dose Alpha: 0.00E000 mSv/MBq | Adrenals dose Beta: 3.12E−03 mSv/MBq | Adrenals dose Photon: 7.93E−03 mSv/MBq | Adrenals dose Total: 1.10E−02 mSv/MBq | Brain ED Cont.: 3.59E−05 mSv/MBq | Brain EDE Cont.: 0.00E000 mSv/MBq | Brain dose Alpha: 0.00E000 mSv/MBq | Brain dose Beta: 3.12E−03 mSv/MBq | Brain dose Photon: 4.07E−03 mSv/MBq | Brain dose Total: 7.19E−03 mSv/MBq | Breasts ED Cont.: 3.34E−04 mSv/MBq | Breasts EDE Cont.: 1.00E−03 mSv/MBq | Breasts dose Alpha: 0.00E000 mSv/MBq | Breasts dose Beta: 3.12E−03 mSv/MBq | Breasts dose Photon: 3.55E−03 mSv/MBq | Breasts dose Total: 6.67E−03 mSv/MBq | Gallbladder Wall ED Cont.: 0.00E000 mSv/MBq | Gallbladder Wall EDE Cont.: 0.00E000 mSv/MBq | Gallbladder Wall dose Alpha: 0.00E000 mSv/MBq | Gallbladder Wall dose Beta: 3.12E−03 mSv/MBq | Gallbladder Wall dose Photon: 7.46E−03 mSv/MBq | Gallbladder Wall dose Total: 1.06E−02 mSv/MBq | Heart Wall ED Cont.: 0.00E000 mSv/MBq | Heart Wall EDE Cont.: 0.00E000 mSv/MBq | Heart Wall dose Alpha: 0.00E000 mSv/MBq | Heart Wall dose Beta: 1.32E−03 mSv/MBq | Heart Wall dose Photon: 5.39E−03 mSv/MBq | Heart Wall dose Total: 6.71E−03 mSv/MBq | Kidneys ED Cont.: 3.59E−04 mSv/MBq | Kidneys EDE Cont.: 4.31E−03 mSv/MBq | Kidneys dose Alpha: 0.00E000 mSv/MBq | Kidneys dose Beta: 5.11E−02 mSv/MBq | Kidneys dose Photon: 2.07E−02 mSv/MBq | Kidneys dose Total: 7.18E−02 mSv/MBq | LLI Wall ED Cont.: 1.91E−03 mSv/MBq | LLI Wall EDE Cont.: 9.53E−04 mSv/MBq | LLI Wall dose Alpha: 0.00E000 mSv/MBq | LLI Wall dose Beta: 3.12E−03 mSv/MBq | LLI Wall dose Photon: 1.28E−02 mSv/MBq | LLI Wall dose Total: 1.59E−02 mSv/MBq | Liver ED Cont.: 3.00E−04 mSv/MBq | Liver EDE Cont.: 0.00E000 mSv/MBq | Liver dose Alpha: 0.00E000 mSv/MBq | Liver dose Beta: 9.70E−04 mSv/MBq | Liver dose Photon: 5.02E−03 mSv/MBq | Liver dose Total: 5.99E−03 mSv/MBq | Lungs ED Cont.: 7.93E−04 mSv/MBq | Lungs EDE Cont.: 7.93E−04 mSv/MBq | Lungs dose Alpha: 0.00E000 mSv/MBq | Lungs dose Beta: 1.95E−03 mSv/MBq | Lungs dose Photon: 4.66E−03 mSv/MBq | Lungs dose Total: 6.61E−03 mSv/MBq | Muscle ED Cont.: 4.83E−05 mSv/MBq | Muscle EDE Cont.: 0.00E000 mSv/MBq | Muscle dose Alpha: 0.00E000 mSv/MBq | Muscle dose Beta: 3.12E−03 mSv/MBq | Muscle dose Photon: 6.55E−03 mSv/MBq | Muscle dose Total: 9.67E−03 mSv/MBq | Osteogenic Cells ED Cont.: 1.32E−04 mSv/MBq | Osteogenic Cells EDE Cont.: 3.97E−04 mSv/MBq | Osteogenic Cells dose Alpha: 0.00E000 mSv/MBq | Osteogenic Cells dose Beta: 6.70E−03 mSv/MBq | Osteogenic Cells dose Photon: 6.52E−03 mSv/MBq | Osteogenic Cells dose Total: 1.32E−02 mSv/MBq | Ovaries ED Cont.: 3.14E−03 mSv/MBq | Ovaries EDE Cont.: 3.92E−03 mSv/MBq | Ovaries dose Alpha: 0.00E000 mSv/MBq | Ovaries dose Beta: 3.12E−03 mSv/MBq | Ovaries dose Photon: 1.26E−02 mSv/MBq | Ovaries dose Total: 1.57E−02 mSv/MBq | Pancreas ED Cont.: 5.70E−05 mSv/MBq | Pancreas EDE Cont.: 0.00E000 mSv/MBq | Pancreas dose Alpha: 0.00E000 mSv/MBq | Pancreas dose Beta: 3.12E−03 mSv/MBq | Pancreas dose Photon: 8.29E−03 mSv/MBq | Pancreas dose Total: 1.14E−02 mSv/MBq | Red Marrow ED Cont.: 1.08E−03 mSv/MBq | Red Marrow EDE Cont.: 1.08E−03 mSv/MBq | Red Marrow dose Alpha: 0.00E000 mSv/MBq | Red Marrow dose Beta: 2.22E−03 mSv/MBq | Red Marrow dose Photon: 6.79E−03 mSv/MBq | Red Marrow dose Total: 9.01E−03 mSv/MBq | Skin ED Cont.: 6.95E−05 mSv/MBq | Skin EDE Cont.: 0.00E000 mSv/MBq | Skin dose Alpha: 0.00E000 mSv/MBq | Skin dose Beta: 3.12E−03 mSv/MBq | Skin dose Photon: 3.83E−03 mSv/MBq | Skin dose Total: 6.95E−03 mSv/MBq | Small Intestine ED Cont.: 6.27E−05 mSv/MBq | Small Intestine EDE Cont.: 0.00E000 mSv/MBq | Small Intestine dose Alpha: 0.00E000 mSv/MBq | Small Intestine dose Beta: 3.12E−03 mSv/MBq | Small Intestine dose Photon: 9.42E−03 mSv/MBq | Small Intestine dose Total: 1.25E−02 mSv/MBq | Spleen ED Cont.: 1.34E−04 mSv/MBq | Spleen EDE Cont.: 1.60E−03 mSv/MBq | Spleen dose Alpha: 0.00E000 mSv/MBq | Spleen dose Beta: 1.52E−02 mSv/MBq | Spleen dose Photon: 1.15E−02 mSv/MBq | Spleen dose Total: 2.67E−02 mSv/MBq | Stomach Wall ED Cont.: 1.22E−03 mSv/MBq | Stomach Wall EDE Cont.: 0.00E000 mSv/MBq | Stomach Wall dose Alpha: 0.00E000 mSv/MBq | Stomach Wall dose Beta: 3.12E−03 mSv/MBq | Stomach Wall dose Photon: 7.02E−03 mSv/MBq | Stomach Wall dose Total: 1.01E−02 mSv/MBq | Testes ED Cont.: 0.00E000 mSv/MBq | Testes EDE Cont.: 0.00E000 mSv/MBq | Testes dose Alpha: 0.00E000 mSv/MBq | Testes dose Beta: 3.12E−03 mSv/MBq | Testes dose Photon: 8.96E−03 mSv/MBq | Testes dose Total: 1.21E−02 mSv/MBq | Thymus ED Cont.: 4.10E−05 mSv/MBq | Thymus EDE Cont.: 0.00E000 mSv/MBq | Thymus dose Alpha: 0.00E000 mSv/MBq | Thymus dose Beta: 3.12E−03 mSv/MBq | Thymus dose Photon: 5.08E−03 mSv/MBq | Thymus dose Total: 8.20E−03 mSv/MBq | Thyroid ED Cont.: 4.14E−04 mSv/MBq | Thyroid EDE Cont.: 2.48E−04 mSv/MBq | Thyroid dose Alpha: 0.00E000 mSv/MBq | Thyroid dose Beta: 3.12E−03 mSv/MBq | Thyroid dose Photon: 5.15E−03 mSv/MBq | Thyroid dose Total: 8.27E−03 mSv/MBq | Total Body ED Cont.: 0.00E000 mSv/MBq | Total Body EDE Cont.: 0.00E000 mSv/MBq | Total Body dose Alpha: 0.00E000 mSv/MBq | Total Body dose Beta: 3.52E−03 mSv/MBq | Total Body dose Photon: 6.33E−03 mSv/MBq | Total Body dose Total: 9.86E−03 mSv/MBq | ULI Wall ED Cont.: 5.85E−05 mSv/MBq | ULI Wall EDE Cont.: 0.00E000 mSv/MBq | ULI Wall dose Alpha: 0.00E000 mSv/MBq | ULI Wall dose Beta: 3.12E−03 mSv/MBq | ULI Wall dose Photon: 8.57E−03 mSv/MBq | ULI Wall dose Total: 1.17E−02 mSv/MBq | Urinary Bladder Wall ED Cont.: 1.14E−02 mSv/MBq | Urinary Bladder Wall EDE Cont.: 1.36E−02 mSv/MBq | Urinary Bladder Wall dose Alpha: 0.00E000 mSv/MBq | Urinary Bladder Wall dose Beta: 1.56E−01 mSv/MBq | Urinary Bladder Wall dose Photon: 7.14E−02 mSv/MBq | Urinary Bladder Wall dose Total: 2.27E−01 mSv/MBq | Uterus ED Cont.: 1.18E−04 mSv/MBq | Uterus EDE Cont.: 1.41E−03 mSv/MBq | Uterus dose Alpha: 0.00E000 mSv/MBq | Uterus dose Beta: 3.12E−03 mSv/MBq | Uterus dose Photon: 2.04E−02 mSv/MBq | Uterus dose Total: 2.36E−02 mSv/MBq
